Reference: US12496320B2, “Lactobacillus sp. strain and use thereof” (LG HOUSEHOLD & HEALTH CARE LTD., priority 2020, dated 2025)

Columns and labels:
Type in all cases: cell-based
MNT-1 melanoma cells = assay: Melanin production inhibitory ability; settings: 200 μg/mL, 72 hours
Method: The melanin production inhibitory ability (brightening) of the Lactobacillus pentosus […]-1 strain of the present invention was investigated. Specifically, MNT-1 melanoma cells were prepared by adding 10% FBS to DMEM (Dulbecco's Modified Eagle's Medium) as a basal medium. Then, the MNT-1 melanoma cells were seeded in a 6-well plate at a concentration of 1 to 2×10^5 cells/mL and cultured for 24 hours. Subsequently, the strain of the present invention was treated, and the cells were cultured for 72 hours and then recovered. Then, after centrifugation at 13,000 rpm for 1 minute and removal of the supernatant, 300 μL of a 0.5% Triton X-100 solution was added to the pellet to lyse the cells. Thereafter, centrifugation was performed at 13,000 rpm for 3 minutes, and the pellet and supernatant were recovered. Then, 100 μL of 0.5N NaOH was added to the pellet, and the cells were incubated overnight to dissolve melanin, and then the absorbance at 450 nm was measured using an ELISA reader.

[1] = tested on: raw 264.7 mouse macrophages; assay: Nitric oxide production inhibitory ability, GRIESS method, LPS stimulated; settings: 100 uM, 500 ng/mL LPS
Method: The NO production inhibitory ability of the Lactobacillus pentosus NIFSLG-1 strain of the present invention was investigated. Specifically, the nitric oxide (NO) production ability in raw 264.7 mouse macrophages was evaluated for anti-inflammatory efficacy using the GRIESS method. First, the Raw 264.7 cells (2×10^5 cells/well) were dispensed into a 24-well culture plate, cultured in a DMEM medium containing 10% FBS (fetal bovine serum) for 24 hours, and then cultured in a medium without FBS for 12 hours. Subsequently, […] and pretreated for 30 minutes, and added to the cells with LPS (lipopolysaccharide) to a final concentration of 500 ng/ml, and then cultured for 18 hours.
Thereafter, the supernatant was recovered, and the GRIESS reagent was added, followed by reacting at room temperature for 15 minutes, and the absorbance was measured at 540 nm to evaluate the relative NO production and production inhibitory ability.

skin fibroblasts = assay: Collagen synthesis effect, ELISA; settings: concentration 100 (unit not given), 24 hours
Method: The efficacy of collagen synthesis was investigated for the Lactobacillus pentosus […]-1 strain of the present invention. Specifically, after primary culture of skin fibroblasts, DMEM (Dulbecco's Modified Eagle's Medium) with an addition of 10% FBS was used as a basal medium for the skin fibroblasts. Then, the skin fibroblasts were seeded in a 48-well plate at a concentration of 2 to 5×10^4 cells/mL and cultured for 24 hours. Subsequently, the growth medium was removed, and a medium containing the strain of the present invention (without FBS added) was added, and the cells were cultured for 24 hours, and thereafter the cell culture solution was taken and subjected to ELISA analysis.

## OC[C@H]1O[C@@H](Oc2ccc(O)cc2)[C@H](O)[C@@H](O)[C@@H]1O [Arbutin]
MNT-1 melanoma cells
  Melanin content (% control): 74.37 % control

## CNC(=N)NCCC[C@H](N)C(=O)O [L-NMMA]
[1]
  Inhibition Rate (% control) of NO production: 81.2 % control

## O=C1O[C@H]([C@@H](O)CO)C(O)=C1O [Vita C]
Skin fibroblasts
  Collagen (% control): 161.91 % control
